Assay results taken from ChEMBL document CHEMBL3430912, “GSK Tres Cantos Anti-Kinetoplastid Screening (TCAKS) Data”.

Tests used:
[1] = tested on: Trypanosoma brucei brucei; assay: GSK_TCAKS: pIC50 Trypanosoma brucei viability assay using fluorescence intensity. Assay plates (1536-well) were prepared by dispensing 25nL of compound solution per well using an Echo acoustic dispenser (Labcyte).; type: functional, organism-based; conditions: Lister 427, 2 h
[2] = tested on: Leishmania donovani; assay: (§1) GSK_TCAKS: pIC50 Leishmania donovani Imaging: Infected Macrophages. Assay plates (384-well) were prepared by adding 250nL of compound to each well. For single shot assay, the final compound concentration was 5 uM. […] Automated image analysis was performed with a script developed on Acapella High Content Imaging and Analysis Software (PerkinElmer). Output: Percent of infected macrophage cells were reported for each well.; type: functional, organism-based, Homo sapiens; conditions: THP-1
[3] = tested on: Leishmania donovani; assay: as §1, with “THP-1 Host” for “Infected”, “THP-1 cell count” for “Percent of infected macrophage cells”; type: functional, organism-based, Homo sapiens
[4] = tested on: Trypanosoma cruzi; assay: (§2) GSK_TCAKS: pIC50 Trypanosoma cruzi Imaging: Infected Cells. […] Cells were then washed once with PBS before infection. T. cruzi trypomastigotes, collected at days 5 to 8 after infection from LLC-MK2 parasite infected cultures, were allowed to swim out for 4h at 37C from a centrifuged pellet (2,500 rpm/10 min/room temperature). Trypomastigotes were then collected and counted in a CASY Cell Counter. Trypomastigotes, in supplemented DMEM, were added to H9c2 cultures in a multiplicity of infection of 1 and incubated for 18 h. Cells were washed once with PBS before incubation of the infected H9c2 monolayer with trypsin (Life-Technologies) to detach cells from the flask. Cells were counted in a CASY Cell Counter using a 150 um capillary and their density set at 5 * 10^4 cells per mL in supplemented assay DMEM. Infected H9c2 were dispensed into 384-well poly-lysine coated assay plates at 50uL per well using a Multidrop Combi dispenser. After seeding them, the plates were incubated at 37C, 5% CO2 for 72h. Cultures were then fixed and stained by addition of 50 uL of a solution containing 8% formaldehyde and 4 uM DRAQ5 DNA dye (BioStatus, UK) per well. […] Five images were collected per well for reliable statistical analysis. Automated image analysis was performed with a script developed on Acapella High Content Imaging and Analysis Software (PerkinElmer). Output: percentage of infected cells per well as a second infection marker.; type: functional, organism-based, Rattus norvegicus; conditions: H9c2, 4 h
[5] = GSK_TCAKS: pIC50 HepG2 human cell line viability assay using luminiscence. […] Seeding density was checked to ensure that new mono-layers were not more than 50% confluent at the time of harvesting. Cell suspension was added to 500 mL of the same medium at a final density of 1.2 * 10^5 cells/mL. This cell suspension was dispensed (25 uL, 3000 cells per well) into 384-well clear-bottom plates using a Multidrop Combi dispenser. Prior to addition of the cell suspension, the screening compounds (250 nL) were pre-dispensed into the plates with an Echo liquid handler. Plates were incubated for 48 h at 37C, 5% CO2. After incubation, plates equilibrated at room temperature for 30 min before proceeding to develop the luminescent signal. The signal developer, CellTiter-Glo Reagent, was allowed to equilibrate at room temperature for 30 min and added to the plates (25uL per well) using a Multidrop Combi dispenser. Plates were left for 10 min at room temperature for stabilization and then read using a ViewLux.; type: toxicity, cell-based
[6] = tested on: Leishmania donovani; assay: as §1, with “Amastigotes/Macrophages.” for “Infected Macrophages.”, “Average number” for “Percent”, “amastigotes per” for “infected”, “cell” for “cells”; type: functional, organism-based, Homo sapiens; conditions: THP-1
[7] = tested on: Trypanosoma cruzi; assay: as §2, with “H2C9” for “Trypanosoma cruzi”, “H9c2 Host Cardiomyocytes.” for “Infected Cells.”, “Number” for “percentage”, “H9c2 Host Cardiomyocytes nuclei to determine drug-related cytotoxicity.” for “infected cells per well as a second infection marker.”; type: functional, organism-based, Rattus norvegicus; conditions: H9c2, 4 h
[8] = molecular target: Sterol 14-alpha demethylase (Trypanosoma cruzi (strain CL Brener), UniProt Q7Z1V1); assay: GSK_TCAKS: pIC50 CYP51 from Trypanosoma cruzi.; type: functional
[9] = tested on: Trypanosoma brucei brucei; assay: GSK_TCAKS: pIC50 Trypanosoma brucei viability assay using luminiscence. Assay plates (1536-well) were prepared. T. brucei cultures were harvested and counted in a CASY cell counter. A parasite suspension was prepared at a final concentration of 5 * 10^4 cells/mL in complete HMI9 medium and 6uL was dispensed to all wells containing compounds using a Multidrop Combi dispenser. 6uL of HMI9 media with 0.4% DMSO were dispensed to control columns. Plates were incubated for 24 h at 37C, 5% CO2 then tempered for 10 min at room temperature. ATP content was quantified by adding 4 uL of CellTiter-Glo Reagent (Promega) according to the manufacturer's instructions. Luminescence was measured using a ViewLux.; type: functional, organism-based; conditions: Lister 427, CASY
[10] = tested on: Leishmania donovani; assay: GSK_TCAKS: pIC50 Leishmania donovani viability assay using fluorescence intensity. Assay plates (1536-well) were prepared by adding 30nL per well of compound. For single shot assay, the final compound concentration was 5uM. […] Briefly, eGFP LdBOB axenic amastigotes were harvested, fixed and counted in a CASY cell counter (Roche-Applied Science). A final concentration of 1.5 * 10^5 cells per well were prepared in amastigote media containing 500 U/mL penicillin/streptomycin (Invitrogen) and 6uL was dispensed to each experimental well using a Multidrop Combi dispenser (Thermo Scientific). 6uL of assay media was dispensed to control columns used as reference for 100% compound response. Following incubation for 72 h at 37C, 5% CO2, 2 uL of resazurin was added to each well at a final concentration of 0.5 mM in phosphate buffered saline (PBS) with IGEPAL (Sigma-Aldrich), 0.05% (v/v).; type: functional, organism-based
[11] = tested on: Trypanosoma cruzi; assay: GSK_TCAKS: pIC50 Trypanosoma cruzi viability assay using beta-GAL activity. This assay was run at single shot at 5uM compound concentration per well. The biological reagents consisted of NIH-3T3 host cells and trypomastigotes parasitic cells; both cell types were set to a 3.3 * 10^5 cells/mL dilution in assay DMEM by means of a CASY cell counter device using a 60um capillary. 6 uL of the mixture were dispensed per well (about 1 * 10^3 host-cells and 1 * 10^3 parasites) with a Multidrop Combi dispenser. […] In all wells, the percentage of DMSO never exceeded 0.5%. Plates incubated for four days at 37C, 5% CO2. The substrate used for the assay fluorescence intensity (FLINT) readout was resorufin-beta-D-galactopiranoside (Sigma-Aldrich) at 5uM per well. It was diluted in PBS supplemented with the soft detergent Igepal (Fluka).; type: functional, organism-based, Mus musculus; conditions: Tulahuen, NIH3T3
[12] = tested on: Trypanosoma cruzi; assay: GSK_TCAKS: pIC50 Trypanosoma cruzi Imaging: Amastigotes/Cell. […] Cells were then washed once with PBS before infection. T. cruzi trypomastigotes, collected at days 5 to 8 after infection from LLC-MK2 parasite infected cultures, were allowed to swim out for 4h at 37C from a centrifuged pellet (2,500 rpm/10 min/room temperature). Trypomastigotes were then collected and counted in a CASY Cell Counter. Trypomastigotes, in supplemented DMEM, were added to H9c2 cultures in a multiplicity of infection of 1 and incubated for 18 h. Cells were washed once with PBS before incubation of the infected H9c2 monolayer with trypsin (Life-Technologies) to detach cells from the flask. Cells were counted in a CASY Cell Counter using a 150 um capillary and their density set at 5 * 10^4 cells per mL in supplemented assay DMEM. Infected H9c2 were dispensed into 384-well poly-lysine coated assay plates at 50uL per well using a Multidrop Combi dispenser. After seeding them, the plates were incubated at 37C, 5% CO2 for 72h. Cultures were then fixed and stained by addition of 50 uL of a solution containing 8% formaldehyde and 4 uM DRAQ5 DNA dye (BioStatus, UK) per well. […] Five images were collected per well for reliable statistical analysis. Automated image analysis was performed with a script developed on Acapella High Content Imaging and Analysis Software (PerkinElmer). Output: number of amastigotes per cell as infection level measurement.; type: functional, organism-based, Rattus norvegicus; conditions: H9c2, 4 h

Sterol 14-alpha demethylase, sequence (Q7Z1V1 whole entry): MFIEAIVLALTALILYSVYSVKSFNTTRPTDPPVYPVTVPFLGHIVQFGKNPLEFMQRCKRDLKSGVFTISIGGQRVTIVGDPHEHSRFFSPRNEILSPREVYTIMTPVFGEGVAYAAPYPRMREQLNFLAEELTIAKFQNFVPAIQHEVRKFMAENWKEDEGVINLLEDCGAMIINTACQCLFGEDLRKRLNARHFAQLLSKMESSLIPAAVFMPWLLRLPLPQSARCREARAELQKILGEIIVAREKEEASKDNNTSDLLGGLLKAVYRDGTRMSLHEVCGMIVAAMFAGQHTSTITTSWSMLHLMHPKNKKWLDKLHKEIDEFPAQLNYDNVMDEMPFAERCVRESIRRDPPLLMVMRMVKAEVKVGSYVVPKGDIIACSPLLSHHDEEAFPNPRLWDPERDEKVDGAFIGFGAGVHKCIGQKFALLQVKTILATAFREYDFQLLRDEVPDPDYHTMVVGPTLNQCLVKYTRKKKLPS

Compound | IC50 [1] [µM] | IC50 [2] [µM] | IC50 [3] [µM] | IC50 [4] [µM] | IC50 at 48 h [5] [µM] | IC50 [6] [µM] | IC50 [7] [µM] | IC50 [8] [µM] | IC50 [9] [µM] | IC50 [10] [µM] | IC50 [11] [µM] | IC50 [12] [µM]
CCOc1ccc(N(C)S(=O)(=O)c2ccc3[nH]cc(C(=O)NC4CCCC4)c(=O)c3c2)cc1 | 0.251 | 31.6 | 25.1 | > 50.1 | 50.1 | 31.6 | > 50.1 | 6.31 | 0.501 | > 50.1 | 7.94 | 6.31
Cn1ccnc1-c1nc(NCc2ccccc2Cl)cc(C2CC2)n1 | 2 | 0.631 | 7.94 | 0.794 | 20 | 0.2 | 0.631 | 39.8 | 1.58 | 1.58 | 0.631 | 0.794
CCc1cc(C(=O)Nc2nccn2-c2ccccc2)cs1 | 3.16 | 12.6 | 31.6 | 5.01 | > 100 | 5.01 | 20 | > 100 | 3.98 | 6.31 | 3.16 | 3.16
CCCCN(C(=O)c1ccc(NC(=O)C(C)C)cc1)c1ccccc1 | 15.8 | 5.01 | > 50.1 | > 50.1 | > 100 | 3.16 | > 50.1 | 12.6 | > 39.8 | 1 | 20 | 10
COc1cccc(Nc2cc(C)nc(-c3ccccn3)n2)c1 | > 39.8 | 2 | > 50.1 | 12.6 | 50.1 | 1.26 | 5.01 | > 100 | > 39.8 | 3.98 | 3.16 | 7.94
COc1ccc(C(=O)[C@H]2C[C@@H]2CN(Cc2ccccn2)Cc2ccccn2)cc1 | 6.31 | 1.58 | > 50.1 | 1.58 | > 100 | 1.26 | 25.1 | 39.8 | 15.8 | 7.94 | 1.58 | 1
Cc1ccccc1NS(=O)(=O)c1ccc2[nH]cc(C(=O)NC3CCCC3)c(=O)c2c1 | 0.316 | > 50.1 | 31.6 | 31.6 | 25.1 | 39.8 | 20 | 12.6 | 0.631 | > 50.1 | 25.1 | 25.1
CCC(CC)C(=O)Nc1cccc(C(=O)Nc2nnc(C3CCCCC3)s2)c1 | 0.251 | > 50.1 | > 50.1 | 25.1 | > 100 | > 50.1 | > 50.1 | > 100 | 0.631 | > 50.1 | 10 | 15.8
